The record followed here is patent publication US11319303B2 (WIGEN BIOMEDICINE TECHNOLOGY (SHANGHAI) CO., LTD., priority 2017, dated 2022).

The structures appear in SMILES notation. Where only a bound is given, the exact number is not on record here.

For the first assay, the target named is LC3B (Homo sapiens, UniProt Q9GZQ8). Briefly: Fluorescence Polarization (FP) Assay: displacement of FITC-labeled peptide from GST-LC3B. The format is binding.
Settings: not given
The procedure: The compounds of the present invention for regulating the autophagy-related protein LC3B were tested by Fluorescence Polarization (FP) Assay.
Fluorescence Polarization (FP) Assay Test
(Fluorescence polarisation rises when a labelled molecule tumbles more slowly, as on binding a larger partner.)
One may read the IC50 as the point on the concentration scale where inhibition reaches its midpoint. Turning to `CN(C)CCNC=C1C(=O)CC(c2cccc(F)c2F)CC1=O` (centres unmarked) [Compound 304, 5-(2,3-difluorophenyl)-2-(((2-(dimethylamino)ethyl)amino)methylene) cyclohexane-1,3-dione], the concentration for half-maximal inhibition (IC50) was < 3 µM.

Staying with this assay, now noted: Fluorescence Polarization assay; GST-LC3B 180 nM, FITC-labeled peptide 18 nM, 25° C.; read-out: IC50.
With `Cc1ccc2[nH]cc(C3CC(=O)C(=CN(C)C)C(=O)C3)c2c1` (centres unmarked) [Compound 299, 2-((dimethylamino)methylene)-5-(5-methyl-1H-indol-3-yl)cyclohexane-1,3-dione], the IC50 lay in the range of 3 to 15 µM.

For the compound `CN(C)CCNC=C1C(=O)CC(c2ccccc2I)CC1=O` (centres unmarked) [Compound 300, 2-(((2-(dimethylamino)ethyl)amino)methylene)-5-(2-iodophenyl) cyclohexane-1,3-dione], the IC50 is < 3 µM.

Consider `CN(C)CCNC=C1C(=O)CC(c2ccc(F)cc2F)CC1=O` (centres unmarked) [Compound 301, 5-(2,4-difluorophenyl)-2-(((2-(dimethylamino)ethyl)amino)methylene) cyclohexane-1,3-dione], for which the IC50 was < 3 µM.

Regarding `CN(C)CCNC=C1C(=O)CC(c2cc(F)ccc2F)CC1=O` (centres unmarked) [Compound 302, 5-(2,5-difluorophenyl)-2-(((2-(dimethylamino)ethyl)amino)methylene) cyclohexane-1,3-dione], the IC50 is < 3 µM.

Consider `CN(C)CCNC=C1C(=O)CC(c2ccc(F)cc2Br)CC1=O` (centres unmarked) [Compound 305, 5-(2-bromo-4-fluorophenyl)-2-(((2-(dimethylamino)ethyl)amino)methylene) cyclohexane-1,3-dione], for which the half-inhibitory concentration (IC50) is < 3 µM.

As to `CN(C)CCNC=C1C(=O)CC(c2c(F)cccc2Br)CC1=O` (centres unmarked) [Compound 306, 5-(2-bromo-6-fluorophenyl)-2-(((2-(dimethylamino)ethyl)amino)methylene) cyclohexane-1,3-dione], the IC50 is < 3 µM.

For the compound `O=C1CC(c2ccccc2)CC(=O)C1=CNC(=O)c1ccccn1` (centres unmarked) [Compound 307, N-((2,6-dioxo-4-phenylcyclo-hexylidene)methyl) picolinamide], the IC50 fell in the range of 3 to 15 µM.

For `CN(C)CCNC=C1C(=O)CC(c2ccccc2O)CC1=O` (centres unmarked) [Compound 308, 2-(((2-(dimethylamino)ethyl)amino)methylene)-5-(2-hydroxyphenyl) cyclohexane-1,3-dione], the IC50 was in the range of 3 to 15 µM.

Turning to `COc1ccccc1C1CC(=O)C(=CNCCN(C)C)C(=O)C1` (centres unmarked) [Compound 310, 2-(((2-(dimethylamino)ethyl)amino)methylene)-5-(2-methoxyphenyl) cyclohexane-1,3-dione], the IC50 was < 3 µM.

For `CN(C)CCNC=C1C(=O)CC(c2cccc([N+](=O)[O-])c2)CC1=O` (centres unmarked) [Compound 311, 2-(((2-(dimethylamino)ethyl)amino)methylene)-5-(3-nitrophenyl) cyclohexane-1,3-dione], the half-maximal inhibitory concentration (IC50) is < 3 µM.

For the compound `O=C1CC(c2ccc3cc[nH]c3c2)CC(=O)C1=CNCCN1CCN(CCO)CC1` (centres unmarked) [Compound 315, 2-(((2-(4-(2-hydroxyethyl)piperazin-1-yl)ethyl)amino)methylene)-5-(1H-indol-6-yl)cyclohexane-1,3-dione], the half-inhibitory concentration (IC50) is < 3 µM.

With `O=C1Nc2ccc(C(F)(F)F)cc2C(=O)/C1=C/NCCN1CCN(CCO)CC1` [Compound 317, 3-(((2-(4-(2-hydroxyethyl)piperazin-1-yl)ethyl)amino)methylene)-6-(trifluoromethyl) quinoline-2,4(1H,3H)-dione], the concentration for half-maximal inhibition (IC50) fell in the range of 3 to 15 µM.

For `O=C1Nc2c(cccc2[N+](=O)[O-])C(=O)/C1=C/NCCN1CCN(CCO)CC1` [Compound 318, 3-(((2-(4-(2-hydroxyethyl)piperazin-1-yl)ethyl)amino)methylene)-8-nitroquinoline-2,4(1H,3H)-dione], the IC50 is < 3 µM.

For `O=C1CC(c2ccccc2C(F)(F)F)CC(=O)C1=CNCCN1CCN(CCO)CC1` (centres unmarked) [Compound 320, 2-(((2-(4-(2-hydroxyethyl)piperazin-1-yl)ethyl)amino)methylene)-5-(2-(trifluoromethyl)phenyl) cyclohexane-1,3-dione], the IC50 is < 3 µM.

`O=C1Nc2c(cccc2-c2ccccc2)C(=O)/C1=C\NCCN1CCN(CCO)CC1` [Compound 321, 3-(((2-(4-(2-hydroxyethyl)piperazin-1-yl)ethyl)amino)methylene)-8-phenylquinoline-2,4(1H,3H)-dione]: the half-maximal inhibitory concentration (IC50) fell in the range of 3 to 15 µM.

For `O=C1CC(c2cccc3[nH]cc(Cl)c23)CC(=O)C1=CNCCN1CCN(CCO)CC1` (centres unmarked) [Compound 322, 5-(3-chloro-1H-indol-4-yl)-2-(((2-(4-(2-hydroxyethyl)piperazin-1-yl)ethyl)amino)methylene) cyclohexane-1,3-dione], the IC50 is < 3 µM.

Regarding `O=C1CC(c2ccccc2)C(c2ccccc2)C(=O)C1=CNCCN1CCN(CCO)CC1` (centres unmarked) [Compound 323, 2-(((2-(4-(2-hydroxyethyl)piperazin-1-yl)ethyl)amino)methylene)-4,5-diphenylcyclo-hexane-1,3-dione], the IC50 was 3 to 15 µM.

Regarding `CC1(C)C(=O)C(=CNCCN2CCN(CCO)CC2)C(=O)CC1c1ccccc1` (centres unmarked) [Compound 324, 2-(((2-(4-(2-hydroxyethyl)piperazin-1-yl)ethyl)amino)methylene)-4,4-dimethyl-5-phenylcyclohexane-1,3-dione], the IC50 lay within 3 to 15 µM.

As to `CC1C(=O)/C(=C/NCCN2CCN(CCO)CC2)C(=O)CC1(O)c1ccccc1` (centres unmarked) [Compound 325, 5-hydroxy-2-(((2-(4-(2-hydroxyethyl)piperazin-1-yl)ethyl)amino)methylene)-4-methyl-5-phenylcyclohexane-1,3-dione], the IC50 lay within 15 to 100 µM.

Turning to `O=C(NCCN1CCN(CCO)CC1)C1C(=O)Nc2ccccc2C1=O` (centres unmarked) [Compound 326, N-(2-(4-(2-hydroxyethyl)piperazin-1-yl)ethyl)-2,4-dioxo-1,2,3,4-tetrahydroquinoline-3-carboxamide], the IC50 was in the range of 100 to 1000 µM.

As to `N#CC1C(=O)C(=CNCCN2CCN(CCO)CC2)C(=O)CC1c1ccccc1` (centres unmarked) [Compound 327, 2-(((2-(4-(2-hydroxyethyl)piperazin-1-yl)ethyl)amino)methylene)-4-cyano-5-phenylcyclohexane-1,3-dione], the IC50 was < 3 µM.

As for `O=C1Nc2ccc(-c3ccccc3)cc2C(=O)/C1=C/NCCN1CCN(CCO)CC1` [Compound 328, 3-(((2-(4-(2-hydroxyethyl)piperazin-1-yl)ethyl)amino)methylene)-6-phenylquinoline-2,4(1H,3H)-dione], the IC50 lay within 3 to 15 µM.

For `Cc1ccc(C2CC(=O)C(=CNCCN3CCN(CCO)CC3)C(=O)C2)c(Br)c1` (centres unmarked) [Compound 329, 5-(2-bromo-4-methylphenyl)-2-(((2-(4-(2-hydroxyethyl)piperazin-1-yl)ethyl)amino)methylene) cyclohexane-1,3-dione], the IC50 was < 3 µM.

Take `CCOC(=O)C1C(=O)/C(=C\NCCN2CCN(CCO)CC2)C(=O)CC1c1cccc2[nH]ccc12` (centres unmarked) [Compound 330, ethyl 3-(((2-(4-(2-hydroxyethyl)piperazin-1-yl)ethyl)amino)methylene)-6-(1H-indol-4-yl)-2,4-dioxocyclohexane-1-carboxylate]: the IC50 fell in the range of 3 to 15 µM.

`O=C1Nc2c(ccc3ccccc23)C(=O)/C1=C\NCCN1CCN(CCO)CC1` [Compound 331, 3-(((2-(4-(2-hydroxyethyl)piperazin-1-yl)ethyl)amino)methylene) benzo[h]quinoline-2,4(1H,3H)-dione]: the IC50 is < 3 µM.
